Experimental data taken from patent publication CN104710358A, “喹啉-4-甲酰胺衍生物及其医药用途” (Chengdu Military General Hospital of PLA, priority 2015, dated 2015).

Test system: PTSD rat conditioned fear response [束缚应激致PTSD大鼠条件恐惧反应]
Test: Conditioned fear response in restraint-stress-induced PTSD rats (freezing after foot shock)
Format: in vivo
Details: dose not given, Fig. 1

Structure (SMILES): Cc1ccc(Cl)cc1N1CCN(CCCNC(=O)c2ccnc3ccccc23)CC1 [化合物1, N-{3-[4-(5-氯-2-甲基苯基)哌嗪基]丙基}-喹啉-4-甲酰胺, 盐酸乙醚成盐]
- percentage of freezing time (PTSD group, before versus after drug administration, 5 min test in shock box (CS+) without current): 显著降低
- inhibition of PTSD conditioned fear response (PTSD rats): 显著抑制PTSD条件性恐惧反应
- anxiety level of PTSD rats (PTSD rats, inferred from the conditioned fear test): 降低PTSD大鼠的焦虑水平
